In general, AC50 refers to the midpoint of the concentration-response curve, whichever way the signal moves. Read a high AC50 as weaker potency.

The target of one test is Acetylcholinesterase (Homo sapiens, UniProt P22303). It counts as functional.
The target in test [1] is T1, Alpha-1A adrenergic receptor (Homo sapiens, UniProt P35348).
T1 sequence (P35348 whole entry): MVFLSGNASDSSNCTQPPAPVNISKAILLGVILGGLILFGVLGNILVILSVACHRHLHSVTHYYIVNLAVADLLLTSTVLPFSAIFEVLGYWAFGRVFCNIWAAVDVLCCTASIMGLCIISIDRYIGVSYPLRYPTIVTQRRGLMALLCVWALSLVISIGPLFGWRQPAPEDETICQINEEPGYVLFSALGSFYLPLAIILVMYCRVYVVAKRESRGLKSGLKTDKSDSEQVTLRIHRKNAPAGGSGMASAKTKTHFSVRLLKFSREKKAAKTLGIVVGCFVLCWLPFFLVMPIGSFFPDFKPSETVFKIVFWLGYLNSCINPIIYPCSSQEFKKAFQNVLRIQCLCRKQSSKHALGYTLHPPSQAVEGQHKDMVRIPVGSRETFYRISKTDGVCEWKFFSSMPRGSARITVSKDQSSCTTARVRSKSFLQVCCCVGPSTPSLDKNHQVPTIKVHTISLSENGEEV
It counts as functional, cell-based.

Test [2] concerns the target Gamma-aminobutyric acid receptor subunit alpha-1/alpha-2/beta-2/gamma-2 (Homo sapiens, UniProt P14867+P18507+P47869+P47870). Type of test: protein-complex assay.
Test [3] has as its target Vascular endothelial growth factor receptor 2 (Homo sapiens, UniProt P35968). It counts as functional.

A value given as a limit tells only on which side of the number the result lay.
Also: assay procedure not described here.

Sequence of Gamma-aminobutyric acid receptor subunit alpha-1/alpha-2/beta-2/gamma-2 (P14867 whole entry): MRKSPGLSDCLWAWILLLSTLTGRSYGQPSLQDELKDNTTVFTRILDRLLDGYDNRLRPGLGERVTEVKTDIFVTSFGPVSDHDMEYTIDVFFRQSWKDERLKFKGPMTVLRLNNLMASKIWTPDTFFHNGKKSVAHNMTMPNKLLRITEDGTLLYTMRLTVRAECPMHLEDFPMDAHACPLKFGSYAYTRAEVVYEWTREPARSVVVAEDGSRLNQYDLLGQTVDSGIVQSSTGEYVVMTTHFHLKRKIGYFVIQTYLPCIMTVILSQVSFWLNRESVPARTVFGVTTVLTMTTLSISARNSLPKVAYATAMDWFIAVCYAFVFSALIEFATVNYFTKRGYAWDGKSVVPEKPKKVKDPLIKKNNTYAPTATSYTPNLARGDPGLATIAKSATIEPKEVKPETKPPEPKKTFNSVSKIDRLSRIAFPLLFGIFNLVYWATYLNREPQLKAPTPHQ
Sequence of Gamma-aminobutyric acid receptor subunit alpha-1/alpha-2/beta-2/gamma-2 (P47870 whole entry): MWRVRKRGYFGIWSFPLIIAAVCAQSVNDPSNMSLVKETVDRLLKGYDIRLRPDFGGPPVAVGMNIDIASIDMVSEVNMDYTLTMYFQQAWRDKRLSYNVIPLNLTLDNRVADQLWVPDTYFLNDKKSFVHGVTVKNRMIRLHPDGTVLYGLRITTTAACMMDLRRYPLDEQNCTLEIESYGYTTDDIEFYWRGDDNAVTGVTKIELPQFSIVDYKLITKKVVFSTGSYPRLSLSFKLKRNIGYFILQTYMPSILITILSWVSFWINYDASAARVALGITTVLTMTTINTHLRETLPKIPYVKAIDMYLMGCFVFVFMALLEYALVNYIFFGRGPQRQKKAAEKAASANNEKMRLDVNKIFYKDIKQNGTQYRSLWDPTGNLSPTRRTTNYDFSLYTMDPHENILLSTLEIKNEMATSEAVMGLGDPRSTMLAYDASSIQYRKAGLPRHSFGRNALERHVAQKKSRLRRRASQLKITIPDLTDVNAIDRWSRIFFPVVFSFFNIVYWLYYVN
Sequence of Gamma-aminobutyric acid receptor subunit alpha-1/alpha-2/beta-2/gamma-2 (P18507 whole entry): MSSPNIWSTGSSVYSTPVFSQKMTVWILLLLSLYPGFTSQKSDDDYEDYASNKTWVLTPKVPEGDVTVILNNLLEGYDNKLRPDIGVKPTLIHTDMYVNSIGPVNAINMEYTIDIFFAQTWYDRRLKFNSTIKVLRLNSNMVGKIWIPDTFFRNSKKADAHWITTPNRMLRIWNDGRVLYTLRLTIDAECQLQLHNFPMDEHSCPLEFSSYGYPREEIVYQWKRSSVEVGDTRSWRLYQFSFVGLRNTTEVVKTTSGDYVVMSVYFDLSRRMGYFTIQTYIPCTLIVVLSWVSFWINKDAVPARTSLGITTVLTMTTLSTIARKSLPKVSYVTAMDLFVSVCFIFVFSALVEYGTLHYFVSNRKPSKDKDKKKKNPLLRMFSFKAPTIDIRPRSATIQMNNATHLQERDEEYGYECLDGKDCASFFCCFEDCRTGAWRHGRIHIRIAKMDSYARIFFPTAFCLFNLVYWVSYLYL
Sequence of Gamma-aminobutyric acid receptor subunit alpha-1/alpha-2/beta-2/gamma-2 (P47869 whole entry): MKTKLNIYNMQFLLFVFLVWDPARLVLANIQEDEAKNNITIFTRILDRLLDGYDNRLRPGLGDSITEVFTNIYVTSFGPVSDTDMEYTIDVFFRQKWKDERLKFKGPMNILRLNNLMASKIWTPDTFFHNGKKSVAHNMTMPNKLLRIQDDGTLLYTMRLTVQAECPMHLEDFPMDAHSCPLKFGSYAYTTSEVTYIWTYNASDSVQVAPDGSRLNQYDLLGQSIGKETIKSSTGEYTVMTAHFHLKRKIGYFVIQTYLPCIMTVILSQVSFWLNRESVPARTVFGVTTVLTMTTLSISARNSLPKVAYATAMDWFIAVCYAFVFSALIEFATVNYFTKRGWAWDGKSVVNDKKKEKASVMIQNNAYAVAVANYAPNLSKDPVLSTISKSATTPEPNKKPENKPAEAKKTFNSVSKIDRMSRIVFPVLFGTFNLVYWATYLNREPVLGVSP
Sequence of Acetylcholinesterase (P22303 whole entry): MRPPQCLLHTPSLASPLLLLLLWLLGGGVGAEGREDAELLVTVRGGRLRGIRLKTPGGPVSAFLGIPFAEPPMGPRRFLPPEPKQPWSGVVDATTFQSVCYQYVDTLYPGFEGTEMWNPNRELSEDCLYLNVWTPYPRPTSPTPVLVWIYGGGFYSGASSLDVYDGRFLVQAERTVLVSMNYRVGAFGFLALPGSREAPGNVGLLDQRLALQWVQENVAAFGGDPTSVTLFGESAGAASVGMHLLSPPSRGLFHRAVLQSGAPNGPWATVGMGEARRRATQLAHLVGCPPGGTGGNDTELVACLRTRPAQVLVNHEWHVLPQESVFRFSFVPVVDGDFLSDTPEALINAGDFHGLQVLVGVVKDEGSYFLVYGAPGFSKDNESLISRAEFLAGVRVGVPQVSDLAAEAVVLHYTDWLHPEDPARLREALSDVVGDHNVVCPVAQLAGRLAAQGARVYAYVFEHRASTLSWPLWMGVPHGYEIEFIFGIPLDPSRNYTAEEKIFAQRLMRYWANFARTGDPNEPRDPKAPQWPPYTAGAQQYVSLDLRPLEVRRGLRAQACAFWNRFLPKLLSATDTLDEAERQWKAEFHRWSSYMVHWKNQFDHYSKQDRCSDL
Sequence of Vascular endothelial growth factor receptor 2 (P35968 whole entry): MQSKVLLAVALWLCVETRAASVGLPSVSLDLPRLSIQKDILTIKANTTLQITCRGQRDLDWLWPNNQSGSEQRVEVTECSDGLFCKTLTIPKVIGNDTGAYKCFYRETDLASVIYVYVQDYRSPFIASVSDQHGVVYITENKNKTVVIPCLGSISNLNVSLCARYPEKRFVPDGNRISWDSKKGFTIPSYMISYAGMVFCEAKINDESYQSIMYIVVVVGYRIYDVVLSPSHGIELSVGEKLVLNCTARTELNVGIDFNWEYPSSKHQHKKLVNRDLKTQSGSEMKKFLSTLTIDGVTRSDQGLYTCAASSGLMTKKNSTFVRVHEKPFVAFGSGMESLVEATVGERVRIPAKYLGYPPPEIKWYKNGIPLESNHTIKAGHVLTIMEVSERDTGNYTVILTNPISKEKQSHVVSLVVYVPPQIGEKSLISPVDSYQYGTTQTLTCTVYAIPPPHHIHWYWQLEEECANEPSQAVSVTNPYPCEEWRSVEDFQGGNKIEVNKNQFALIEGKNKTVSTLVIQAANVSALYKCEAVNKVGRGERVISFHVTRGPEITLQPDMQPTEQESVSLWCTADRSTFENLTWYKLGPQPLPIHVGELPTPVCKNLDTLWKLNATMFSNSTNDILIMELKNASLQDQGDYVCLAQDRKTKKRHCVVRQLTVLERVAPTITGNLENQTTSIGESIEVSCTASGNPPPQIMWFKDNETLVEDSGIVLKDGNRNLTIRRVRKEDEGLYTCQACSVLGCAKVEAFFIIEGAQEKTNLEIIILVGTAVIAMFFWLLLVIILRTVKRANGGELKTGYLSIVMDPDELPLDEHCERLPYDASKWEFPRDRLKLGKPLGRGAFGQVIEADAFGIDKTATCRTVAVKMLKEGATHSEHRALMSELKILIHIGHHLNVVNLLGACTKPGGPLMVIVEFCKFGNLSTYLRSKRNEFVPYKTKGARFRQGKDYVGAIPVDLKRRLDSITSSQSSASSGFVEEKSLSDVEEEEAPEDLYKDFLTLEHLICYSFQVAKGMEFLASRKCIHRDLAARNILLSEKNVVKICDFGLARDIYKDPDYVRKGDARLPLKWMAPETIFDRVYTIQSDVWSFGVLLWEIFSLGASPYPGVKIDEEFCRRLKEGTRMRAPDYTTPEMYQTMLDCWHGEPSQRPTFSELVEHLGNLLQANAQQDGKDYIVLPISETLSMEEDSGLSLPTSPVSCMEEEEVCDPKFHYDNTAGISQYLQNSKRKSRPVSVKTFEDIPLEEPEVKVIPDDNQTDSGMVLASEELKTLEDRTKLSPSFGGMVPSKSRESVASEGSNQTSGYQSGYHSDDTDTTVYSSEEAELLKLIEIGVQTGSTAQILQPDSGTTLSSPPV

`C[N+](C)(C)CCCCCCCCCC[N+](C)(C)C` [DECAMETHONIUM]: the AC50 was 9.15 µM on Acetylcholinesterase, above 30 µM in test [1], above 30 µM in test [2] and above 30 µM in test [3].

Consider `CCOC(=O)c1ccc(O)cc1` [ETHYLPARABEN], for which the AC50 (on Acetylcholinesterase; in test [1]; in test [2]; in test [3]) was above 30 µM throughout.

As for `O=C1[C@H](CC[C@H](O)c2ccc(F)cc2)[C@@H](c2ccc(O)cc2)N1c1ccc(F)cc1` [EZETIMIBE], the AC50 is above 30 µM on Acetylcholinesterase, 9.94 µM in test [1], above 10 µM in test [2] and above 30 µM in test [3].

As for `O=C(COc1ccc(Cl)cc1)N1CCN(Cc2ccc3c(c2)OCO3)CC1` [FIPEXIDE], the AC50 (at Acetylcholinesterase; in test [1]; in test [2]; in test [3]) was above 30 µM throughout.

In the case of `Cc1c(-c2ccccc2)oc2c(C(=O)OCCN3CCCCC3)cccc2c1=O` [FLAVOXATE], the AC50 at Acetylcholinesterase was 17.6 µM; in test [1], above 30 µM; in test [2] it was above 30 µM; in test [3], above 30 µM.

Regarding `CCC(=O)c1c(O)cc(O)cc1O` [FLOPROPIONE], the AC50 (at Acetylcholinesterase; in test [1]; in test [2]; in test [3]) was above 30 µM throughout.

`CC1(C)O[C@@H]2C[C@H]3[C@@H]4C[C@H](F)C5=CC(=O)CC[C@]5(C)[C@H]4[C@@H](O)C[C@]3(C)[C@]2(C(=O)CO)O1` [FLURANDRENOLIDE]: the AC50 (on Acetylcholinesterase; in test [1]; in test [2]; in test [3]) was above 30 µM in each case.

In the case of `C#C[C@]1(O)CC[C@H]2[C@@H]3CCC4=CC(=O)CC[C@@H]4[C@H]3CC[C@@]21CC` [LEVONORGESTREL], the AC50 (at Acetylcholinesterase; in test [1]; in test [2]; in test [3]) was above 30 µM in each case.

Consider `OC[C@@H](O)[C@@H](O)[C@H](O)[C@H](O)CO` [MANNITOL], for which the AC50 (at Acetylcholinesterase; in test [1]; in test [2]; in test [3]) was above 30 µM each time.

As for `Sc1ncnc2nc[nH]c12` [MERCAPTOPURINE ANHYDROUS], the AC50 (at Acetylcholinesterase; in test [1]; in test [2]; in test [3]) was above 30 µM in each case.

In the case of `C[N+]1(C)[C@@H]2C[C@@H](OC(=O)[C@H](CO)c3ccccc3)C[C@H]1[C@@H]1O[C@@H]12` [METHSCOPOLAMINE], the AC50 (on Acetylcholinesterase; in test [1]; in test [2]; in test [3]) was above 30 µM throughout.

As to `CC(=O)Oc1c(C)cc(OCC(O)CNC(C)C)c(C)c1C` (centres undefined) [METIPRANOLOL], the AC50 (on Acetylcholinesterase; in test [1]; in test [2]; in test [3]) was above 30 µM in each case.

For `O=C1CC[C@@]2(O)[C@H]3Cc4ccc(O)c5c4[C@@]2(CCN3CC2CC2)[C@H]1O5` [NALTREXONE], the AC50 (at Acetylcholinesterase; in test [1]; in test [2]; in test [3]) was above 30 µM each time.

Consider `CC(N/C(=N\C#N)Nc1ccncc1)C(C)(C)C` (centres undefined) [PINACIDIL ANHYDROUS], for which the AC50 (on Acetylcholinesterase; in test [1]; in test [2]; in test [3]) was above 30 µM in each case.

Consider `CC(O)CO` (centres undefined) [PROPYLENE GLYCOL], for which the AC50 (at Acetylcholinesterase; in test [1]; in test [2]; in test [3]) was above 30 µM throughout.

For `CC(C)OC(=O)[C@H](C)N[P@](=O)(OC[C@H]1O[C@@H](n2ccc(=O)[nH]c2=O)[C@](C)(F)[C@@H]1O)Oc1ccccc1` [SOFOSBUVIR], the AC50 (on Acetylcholinesterase; in test [1]; in test [2]; in test [3]) was above 30 µM each time.

Source of the values: ChEMBL document CHEMBL5291721, “A preclinical secondary pharmacology resource illuminates target-adverse drug reaction associations of marketed drugs” (Nat Commun, 2023).
